# Data from publication PMC2965864 (British Journal of Cancer, 2010).
# Where two headings read alike, the source gives them in different places.
# Key:
# [1] = Plasma pharmacokinetics of sunitinib, SU012662 and total drug in patients; settings: human, in vivo
# Procedure: Pharmacokinetic analysis was carried out in a central laboratory, and pharmacokinetic parameter values were estimated using noncompartmental methods. Human potassium EDTA plasma pharmacokinetic samples were analysed for sunitinib and SU012662 and total drug (sunitinib plus SU012662) concentrations at BASi (West Lafayette, IN, USA) with the use of a validated, sensitive, and specific liquid chromatographic-tandem mass spectrometric method.
# (§1) In cycle 1, sunitinib administration started on day 2. Both agents were evaluated in combination on cycle 2 day 1; samples were drawn before drug administration and at 1, 1.5, 2, 4, 6, 8, 10, and 24 hours post-dose.
# (§2) Pharmacokinetic parameter values were calculated for each subject by noncompartmental analysis of concentration–time data using WinNonlin version 4.1 (http://pharmacy.ucsf.edu/irc/pdfs/wul_users_guide.pdf). […] Summary descriptives of pharmacokinetic values were presented only for paired observations with respect to each analyte. In the case where the dose for one of the paired observations was different from the other observation, dose correction to the intended dose was performed (correction factor: intended dose/actual dose). Dose correction to the MTD was performed. Individual patient trough plasma concentrations were summarised per cycle and study day. All concentrations that were below the limits of quantitation (BLQ) were set to zero before computation of descriptive statistics (BLQ values were excluded from the calculations of geometric means and the associated 95% confidence intervals).
# (§3) Standard plasma pharmacokinetic parameters were used including the maximum plasma concentration (Cmax), time to Cmax (Tmax), area under the plasma concentration–time curve to the time of the last measurable concentration (AUC0–last) or infinity (AUC0–∞), clearance, and terminal elimination half-life (t1/2).
# [2] = Plasma pharmacokinetics of irinotecan and SN-38 in patients; settings: for Tlast: median; for Tmax: median (range), n=18–20 paired
# Procedure: as §1, §2, §3
# [3] = for Patients requiring dose delay / Patients with dose reduction: irinotecan; for Patients requiring dose delay: cycles 1 and 2; for Patients with dose reduction: first two cycles
# Procedure: Seven days before the start of cycle 1, a single day's dose of sunitinib was administered to allow for the collection of samples for pharmacokinetic analysis.
# In addition, prophylactic use of hematopoietic growth factors to support neutrophil or platelet counts was not recommended in cycle 1, but could be used in subsequent cycles.
# Patients underwent regular physical examinations (usually on day 1 of each treatment cycle), laboratory tests (blood, usually on days 1 and 15 of each cycle, and urinalysis) and 12-lead electrocardiogram (at screening, at steady state level of sunitinib on cycle 2 day 1, and as clinically indicated in subsequent cycles). […] Response Evaluation Criteria for Solid Tumors version 1.0 ([Therasse et al 2000]) was used, requiring repeat imaging studies ⩾4 weeks after the initial documentation of response.
# [4] = C2D1/C1D1 (sunitinib+irinotecan relative to irinotecan alone), both cohorts combined
compound,measurement,setting,value
CCNCCNC(=O)c1c(C)[nH]c(/C=C2\C(=O)Nc3ccc(F)cc32)c1C [SU012662],AUC0–last,[1],53.2 (30.9) ng h ml^−1
same,Cmax,[1],3.6 (32.5) ng ml^−1
same,Tlast,[1],24.0 h
same,AUC0–last,[1]; 25 mg,38.6 (54.4) ng h ml^−1
same,Cmax,[1]; 25 mg,2.4 (51.4) ng ml^−1
"CCc1c2c(nc3ccc(OC(=O)N4CCC(N5CCCCC5)CC4)cc13)-c1cc3c(c(=O)n1C2)COC(=O)[C@]3(O)CC [Irinotecan, irinotecan]",Tlast,[2]; Irinotecan alone C1D1,24.0 h
same,Tlast,[2]; Sunitinib+irinotecan C2D1,24.0 h
same,AUC0–last,"[2]; human, in vivo",16.9 (33.3) μg h ml^−1
same,AUC0–∞,"[2]; human, in vivo",18.1 (34.0) μg h ml^−1
same,Cmax,"[2]; human, in vivo, 250 mg",2900 ng/mL
same,AUC(0-t),"[2]; human, in vivo, AUC0–last",14900 ng·h/mL
same,AUC(0-inf),"[2]; human, in vivo, AUC0–∞",15900 ng·h/mL
same,Maximum tolerated dose (MTD),"[3]; irinotecan day 1 of 21-day cycle, with sunitinib 25 mg per day days 1–14",250 mg m^−2
same,Patients requiring dose delay,[3]; cohort 1,four
same,Patients with dose reduction,[3]; cohort 1,six
same,Patients requiring dose delay,[3]; cohort 2,one
same,Patients with dose reduction,[3]; cohort 2,one
CCc1c2c(nc3ccc(O)cc13)-c1cc3c(c(=O)n1C2)COC(=O)[C@]3(O)CC [SN-38],Geometric mean ratio of AUC0–last,[2]; [4],1.20
same,Geometric mean ratio of Cmax,[2]; [4],1.13
same,AUC0–last,"[2]; Irinotecan alone C1D1, mean (CV%)",0.31 (61.7) μg h ml^−1
same,Cmax,"[2]; Irinotecan alone C1D1, mean (CV%), dose corrected to 250 mg m^−2",0.03 (51.4) μg ml^−1
same,Tlast,[2]; Irinotecan alone C1D1,24.0 h
same,Tmax,[2]; Irinotecan alone C1D1,1.1 (1.0–4.2) h
same,AUC0–last,"[2]; Sunitinib+irinotecan C2D1, mean (CV%)",0.36 (52.8) μg h ml^−1
same,Cmax,"[2]; Sunitinib+irinotecan C2D1, mean (CV%), dose corrected to 250 mg m^−2",0.04 (50.0) μg ml^−1
same,Tlast,[2]; Sunitinib+irinotecan C2D1,24.0 h
same,Tmax,[2]; Sunitinib+irinotecan C2D1,1.5 (0.9–4.1) h
"CCN(CC)CCNC(=O)c1c(C)[nH]c(/C=C2\C(=O)Nc3ccc(F)cc32)c1C [Sunitinib, sunitinib]",AUC(0-t),[1],226 ng·h/mL
same,Cmax,[1],13 ng/mL
same,Tlast,[1],24.0 h
same,AUC(0-t),[1]; 25 mg,266 ng·h/mL
same,Cmax,[1]; 25 mg,16.3 ng/mL
same,Maximum tolerated dose (MTD),"[3]; sunitinib days 1–14 of 21-day cycle, with irinotecan 250 mg m^−2 day 1",25 mg per day
